Assay results as given in patent US20230192705A1, “SHP2 INHIBITORS, COMPOSITIONS AND USES THEREOF” (Betta Pharmaceuticals Co., Ltd, priority 2020, published 2023).

biological target: T1, SHP2 (Homo sapiens, UniProt Q06124); assay: SHP2 allosteric inhibitor enzyme activity assay (DiFMUP fluorescence); assay type: biochemical; conditions: class symbols
T1 sequence (Q06124 1-593): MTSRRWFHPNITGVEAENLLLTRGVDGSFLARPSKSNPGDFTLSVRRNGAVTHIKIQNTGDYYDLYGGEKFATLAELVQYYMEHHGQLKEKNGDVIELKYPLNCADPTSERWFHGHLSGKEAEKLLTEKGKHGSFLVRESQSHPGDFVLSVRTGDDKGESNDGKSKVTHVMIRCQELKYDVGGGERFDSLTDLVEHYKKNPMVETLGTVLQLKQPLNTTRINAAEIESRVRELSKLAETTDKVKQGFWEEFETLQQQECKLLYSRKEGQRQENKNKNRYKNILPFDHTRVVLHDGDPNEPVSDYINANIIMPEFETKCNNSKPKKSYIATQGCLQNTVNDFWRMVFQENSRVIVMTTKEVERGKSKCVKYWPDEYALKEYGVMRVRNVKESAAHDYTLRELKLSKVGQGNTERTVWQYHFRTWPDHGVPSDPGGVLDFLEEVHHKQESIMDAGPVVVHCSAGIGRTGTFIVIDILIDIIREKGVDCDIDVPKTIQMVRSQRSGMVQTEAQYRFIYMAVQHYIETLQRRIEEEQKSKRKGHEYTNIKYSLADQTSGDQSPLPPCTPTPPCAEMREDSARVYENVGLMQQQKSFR
Outline: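 SHP2 activated by 0.5 μM IRS1_pY1172(dPEG8)pY1222 peptide, 0.2 ng enzyme per well, 1 h at room temperature with compound (1 μM top, 3-fold series), then DiFMUP substrate 1 h. Buffer: 60 mM HEPES, 75 mM NaCl, 75 mM KCl, 0.05% BRIJ-35, 1 mM EDTA, 5 mM DTT. Fluorescence ex 340/em 450 nm; IC50 by variable-slope fit.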

| SMILES | IC50 [nM] |
| --- | --- |
| N[C@@H]1c2cccnc2CC12CCN(c1nc3[nH]nc(C4(c5ccccc5)CC4)c3c(=O)[nH]1)CC2 [Example 200, (S)-6-(5-amino-5,7-dihydrospiro[cyclopenta[b]pyridine-6,4′-piperidin]-1-yl)-3-(1-phenylcyclopropyl)-1,5-dihydro-4H-pyrazolo[3,4-d]pyrimidin-4-one] | ≤ 20 |
| C[C@@H]1OCC2(CCN(C3=NC(N)=C(C4(c5ccccc5)CC4)C4=NCCCN43)CC2)[C@@H]1N [Example 265, (3S,4S)-8-(8-amino-9-(1-phenylcyclopropyl)-3,4-dihydro-2H-pyrimido[1,6-a]pyrimidin-6-yl)-3-methyl-2-oxa-8-azaspiro[4.5]decan-4-amine] | > 60 |
| C[C@@H]1OCC2(CCN(c3nc4[nH]nc(C5(c6ccc7c(c6)OC(F)(F)O7)CC5)c4c(=O)[nH]3)CC2)[C@@H]1N [Example 308, 6-((3S,4S)-4-amino-3-methyl-2-oxa-8-azaspiro[4.5]decan-8-yl)-3-(1-(2,2-difluorobenzo[d][1,3]dioxol-5-yl)cyclopropyl)-1,5-dihydro-4H-pyrazolo[3,4-d]pyrimidin-4-one] | > 60 |
| Cc1ncccc1C1(c2n[nH]c3nc(N4CCC5(CC4)Cc4ccccc4[C@H]5N)[nH]c(=O)c23)CC1 [Example 89] | ≤ 20 |
| CN1c2ccccc2C(c2n[nH]c3nc(N4CCC5(CC4)Cc4ccccc4[C@H]5N)[nH]c(=O)c23)=CS1(=O)=O [Example 184, (S)-6-(1-amino-1,3-dihydrospiro[indene-2,4′-piperidin]-1′-yl)-3-(1-methyl-2,2-dioxido-1H-benzo[c][1,2]thiazin-4-yl)-1,5-dihydro-4H-pyrazolo[3,4-d]pyrimidin-4-one] | ≤ 20 |
| N[C@@H]1c2ccccc2CC12CCN(c1nc3[nH]nc(C4(c5ccccn5)CCC4)c3c(=O)[nH]1)CC2 [Example 93, (S)-6-(1-amino-1,3-dihydrospiro[indene-2,4′-piperidin]-1′-yl)-3-(1-(pyridin-2-yl)cyclobutyl)-1,5-dihydro-4H-pyrazolo[3,4-d]pyrimidin-4-one] | ≤ 20 |
| C[C@@H]1OCC2(CCN(c3nc4[nH]nc(C5(c6ccc(F)c(F)c6)CC5)c4c(=O)[nH]3)CC2)[C@@H]1N [Example 295, 6-((3S,4S)-4-amino-3-methyl-2-oxa-8-azaspiro[4.5]decan-8-yl)-3-(1-(3,4-difluorophenyl)cyclopropyl)-1,5-dihydro-4H-pyrazolo[3,4-d]pyrimidin-4-one] | 20 to 60 |
| CC1(C)C=C(c2n[nH]c3nc(N4CCC5(CC4)Cc4ccccc4[C@H]5N)[nH]c(=O)c23)c2cn(C3CC3)nc2C1 [Example 155, (S)-6-(1-amino-1,3-dihydrospiro[indene-2,4′-piperidin]-1′-y1)-3-(2-cyclopropyl-6,6-dimethyl-6,7-dihydro-2H-indazol-4-yl)-1,5-dihydro-4H-pyrazolo[3,4-d]pyrimidin-4-one] | 20 to 60 |
| N[C@@H]1c2ccccc2CC12CCN(c1nc3[nH]nc(C4=CCCc5nc(C(F)(F)F)cc(C(F)(F)F)c54)c3c(=O)[nH]1)CC2 [Example 137, (S)-6-(1-amino-1,3-dihydrospiro[indene-2,4′-piperidin]-1′-yl)-3-(2,4-bis(trifluoromethyl)-7,8-dihydroquinolin-5-yl)-1,5-dihydro-4H-pyrazolo[3,4-d]pyrimidin-4-one] | 20 to 60 |
| N[C@@H]1c2ccccc2CC12CCN(c1nc3[nH]nc(C4(c5ccncc5F)CC4)c3c(=O)[nH]1)CC2 [Example 58, (S)-6-(1-amino-1,3-dihydrospiro[indene-2,4′-piperidin]-1′-yl)-3-(1-(3-fluoropyridin-4-yl)cyclopropyl)-1,5-dihydro-4H-pyrazolo[3,4-d]pyrimidin-4-one] | ≤ 20 |
| C[C@@H]1OCC2(CCN(c3nc4[nH]nc(C5(c6ccc(C(F)(F)F)cc6)CC5)c4c(=O)[nH]3)CC2)[C@@H]1N [Example 296, 6-((3S,4S)-4-amino-3-methyl-2-oxa-8-azaspiro[4.5]decan-8-yl)-3-(1-(4-(trifluoromethyl)phenyl)cyclopropyl)-1,5-dihydro-4H-pyrazolo[3,4-d]pyrimidin-4-one] | > 60 |
| CN(C)c1cc(C2(c3n[nH]c4nc(N5CCC6(CC5)Cc5ccccc5[C@H]6N)[nH]c(=O)c34)CC2)ccn1 [Example 54, (S)-6-(1-amino-1,3-dihydrospiro[indene-2,4′-piperidin]-1′-yl)-3-(1-(2-(dimethylamino)pyridin-4-yl)cyclopropyl)-1,5-dihydro-4H-pyrazolo[3,4-d]pyrimidin-4-one] | ≤ 20 |
| N[C@@H]1c2ccccc2CC12CCN(c1nc3[nH]nc(C4=CCC(F)(F)c5ccccc54)c3c(=O)[nH]1)CC2 [Example 123, (S)-6-(1-amino-1,3-dihydrospiro[indene-2,4′-piperidin]-1′-yl)-3-(4,4-difluoro-3,4-dihydronaphtlialen-1-yl)-1,5-dihydro-4H-pyrazolo[3,4-d]pyrimidin-4-one] | ≤ 20 |
| N[C@@H]1c2cc(F)ccc2CC12CCN(c1nc3[nH]nc(C4(c5ccccc5)CC4)c3c(=O)[nH]1)CC2 [Example 195, (S)-6-(1-amino-6-fluoro-1,3-dihydrospiro[indene-2,4′-piperidin]-1′-yl)-3-(1-phenylcyclopropyl)-1,5-dihydro-4H-pyrazolo[3,4-d]pyrimidin-4-one] | ≤ 20 |

More lines, now with the values ahead:

| IC50 [nM] | SMILES |
| --- | --- |
| ≤ 20 | CNc1ncc2c(n1)CC(C)(C)C=C2c1n[nH]c2nc(N3CCC4(CC3)Cc3ccccc3[C@H]4N)[nH]c(=O)c12 [Example 149, (S)-6-(1-amino-1,3-dihydrospiro[indene-2,4′-piperidin]-1′-yl)-3-(7,7-dimethyl-2-(methylamino)-7,8-dihydroquinazolin-5-yl)-1,5-dihydro-4H-pyrazolo[3,4-d]pyrimidin-4-one] |
| ≤ 20 | CN1CC=C(c2n[nH]c3nc(N4CCC5(CC4)Cc4ccccc4[C@H]5N)[nH]c(=O)c23)c2ccccc21 [Compound 178, (S)-6-(1-amino-1,3-dihydrospiro[indene-2,4′-piperidin]-1′-yl)-3-(1-methyl-1,2-dihydroquinolin-4-yl)-1,5-dihydro-4H-pyrazolo[3,4-d]pyrimidin-4-one, reference compound] |
| ≤ 20 | COc1cc(C2(c3n[nH]c4nc(N5CCC6(CC5)Cc5ccccc5[C@H]6N)[nH]c(=O)c34)CC2)ccn1 [Example 28, (S)-6-(1-amino-1,3-dihydrospiro[indene-2,4′-piperidin]-1′-yl)-3-(1-(2-methoxypyridin-4-yl)cyclopropyl)-1,5-dihydro-4H-pyrazolo[3,4-d]pyrimidin-4-one] |
| ≤ 20 | Nc1cccc(C2(c3n[nH]c4nc(N5CCC6(CC5)Cc5ccccc5[C@H]6N)[nH]c(=O)c34)CC2)c1 [Example 43, (S)-6-(1-amino-1,3-dihydrospiro[indene-2,4′-piperidin]-1′-yl)-3-(1-(3-aminophenyl)cyclopropyl)-1,5-dihydro-4H-pyrazolo[3,4-d]pyrimidin-4-one] |
| ≤ 20 | N[C@@H]1c2ccccc2CC12CCN(c1nc3[nH]nc(C4=C(F)CCc5ncccc54)c3c(=O)[nH]1)CC2 [Example 186, (S)-6-(1-amino-1,3-dihydrospiro[indene-2,4′-piperidin]-1′-yl)-3-(6-fluoro-7,8-dihydroquinolin-5-yl)-1,5-dihydro-4H-pyrazolo[3,4-d]pyrimidin-4-one] |
| > 60 | C[C@@H]1OCC2(CCN(c3cnc4c(C5(c6ccccc6)CC5)c[nH]c4n3)CC2)[C@@H]1N [Example 269, (3S,4S)-3-methyl-8-(7-(1-phenylcyclopropyl)-5H-pyrrolo[2,3-b]pyrazin-3-yl)-2-oxa-8-azaspiro[4.5]decan-4-amine] |
| 20 to 60 | N[C@@H]1c2ccccc2CC12CCN(c1nc3[nH]nc(C4(c5ccccc5)CCOC4)c3c(=O)[nH]1)CC2 (stereo partly drawn) [Example 98, 6-((S)-1-amino-1,3-dihydrospiro[indene-2,4′-piperidin]-1′-yl)-3-(3-phenyltetrahydrofuran-3-yl)-1,5-dihydro-4H-pyrazolo[3,4-d]pyrimidin-4-one] |
| ≤ 20 | Cn1c2c(c3ccccc31)C(c1n[nH]c3nc(N4CCC5(CC4)Cc4ccccc4[C@H]5N)[nH]c(=O)c13)=CCC2 [Example 113, (S)-6-(1-amino-1,3-dihydrospiro[indene-2,4′-piperidin]-1′-yl)-3-(9-methyl-2,9-dihydro-1H-carbazol-4-yl)-1,5-dihydro-4H-pyrazolo[3,4-d]pyrimidin-4-one] |
| ≤ 20 | N[C@@H]1c2ccccc2CC12CCN(c1nc3[nH]nc(C4(c5ccccc5)CCC4)c3c3nncn13)CC2 [Example 92, (S)-1′-(9-(1-phenylcyclobutyl)-7H-pyrazolo[4,3-e][1,2,4]triazolo[4,3-c]pyrimidin-5-yl)-1,3-dihydrospiro[indene-2,4′-piperidin]-1-amine] |
| > 60 | C[C@@H]1OCC2(CCN(c3nc4[nH]nc(C5(c6ccc(Cl)cc6Cl)CC5)c4c(=O)[nH]3)CC2)[C@@H]1N [Example 313, 6-((3S,4S)-4-amino-3-methyl-2-oxa-8-azaspiro[4.5]decan-8-yl)-3-(1-(2,4-dichlorophenyl)cyclopropyl)-1,5-dihydro-4H-pyrazolo[3,4-d]pyrimidin-4-one] |
